From patent US20260317312A1, “ISOXAZOLIDINES AS RIPK1 INHIBITORS AND USE THEREOF” (GENZYME CORPORATION, priority 2023, published 2026)

Legend:
U937 cells = assay: Cellular assay in U937 cells to measure activity of RIPK1-inhibitors on cell death (necroptosis); assay type: cell-based; conditions: overnight (18 to 24 hrs), 37° C., MTS readout
Text: Upon TNF-Receptor I ligation, Ser/Thr kinase RIPK1 is recruited to a transient receptor complex I. Upon modification of RIPK1 which promotes activation of RIPK1, complex lib can form, that involves recruitment of RIPK3 and MLKL (mixed lineage-kinase domain-like protein) which then translocates from the cytosol to the plasma membrane to execute cell death (Cai, Z. et al, Nat. Cell Biol. (2014)16:55-65).
Cell death was quantified in 96 well plates by determination of the amount of live cell using a CellTiter 96 Aqueous reagent (Promega), a calorimetric method to measure the number of live cells by reducing tetrazolium compound [3-(4,5-dimethylthiazol-2-yl)-5-(3-carboxymethoxyphenyl)-2-(4-sulfophenyl)-2H-tetrazolium, inner salt; MTS] into formazan. Absorbance of formazan was read at 490 nm. The inhibitory activity of the test compound was quantified in a concentration response curve (CRC) experiment.
Compounds were obtained as 10 mM stock solutions and were diluted 1 to 10 volumes with DMSO to yield a 1 mM solution. From this solution 2 μl were diluted with 998 μl growth medium. 100 μl of 2 μM compound solution was further diluted sequentially with a dilution factor of 2.5 by adding 150 μl growth medium. A total of 10 concentrations were tested ranging from 10 μM to 0.26 nM or from 1 μM to 0.07 nM.
U937 cells were cultured in RPM11640 Glutamax and 10% heat inactivated FBS. 50 μl cell suspension containing 1×10^6 cells/ml supplemented with 50 μM zVAD.fmk (Benzyloxycarbonyl-Val-Ala-Asp (Ome) fluoromethylketone) and 100 ng/ml recombinant human TNFα were dispensed in each well of a 96-well plate. 50 μl of compound dilutions (described in Cellular assay in U937 cells) were added and the cell suspension incubated overnight (18 to 24 hrs) at 37° C., 5% CO2 in a humidified atmosphere (95% rH). High (no compound) and low control (no TNFα, zVAD.fmk) were tested with 7 replicates; all compound concentrations were tested in duplicates on each experimental plate.
CellTiter 96 Aqueous reagent was mixed (100 μl PMS (phenazine methosulfate) solution/2 ml MTS (3-(4,5-[…])-5-(3-carboxymethoxyphenyl)-2-(4-sulfophenyl)-2H-tetrazolium, inner salt) solution) and 20 μl were added per well. After 4 hrs incubation at 37° C. (5% CO2 95% rH) optical density was measured at 490 nm on a microplate reader (Tecan Infinite M1000).
The % inhibition is expressed as percentage of the maximal inhibition value obtained in the absence of TNFα/zVAD.fmc.

[1] = molecular target: T1, hRIPK1 (aa 1-375) fusion protein (Homo sapiens, UniProt Q13546); assay: Receptor-Interacting Protein Kinase 1 inhibition, ADP Glo assay (conversion of ATP to ADP due to autophosphorylation); assay type: biochemical; conditions: ATP 50 μM, 30 min preincubation, 240 min incubation, room temperature, DMSO 1%
T1 construct: hRIPK1 (aa 1-375) fusion protein
T1 sequence (Q13546 1-375): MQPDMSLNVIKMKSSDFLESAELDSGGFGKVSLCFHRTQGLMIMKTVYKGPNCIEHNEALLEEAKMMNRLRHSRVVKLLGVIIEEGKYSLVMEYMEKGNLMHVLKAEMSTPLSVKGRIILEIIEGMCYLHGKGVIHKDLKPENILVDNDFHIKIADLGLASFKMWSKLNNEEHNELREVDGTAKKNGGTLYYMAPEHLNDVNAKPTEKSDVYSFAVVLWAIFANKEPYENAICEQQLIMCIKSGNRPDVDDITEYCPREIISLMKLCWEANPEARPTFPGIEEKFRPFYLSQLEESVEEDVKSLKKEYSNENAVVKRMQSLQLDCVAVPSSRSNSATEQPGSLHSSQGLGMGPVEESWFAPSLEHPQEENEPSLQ
Method: The catalytic activity of RIPK1 was measured by monitoring the conversion of Adenosine triphosphate (ATP) to Adenosine diphosphate (ADP) due to autophosphorylation using an ADP-Glo kinase kit (Promega, catalog no. V9104).
In detail, 2 μl recombinantly produced hRIPK1 (aa 1-375) fusion protein (end concentration 3.6 μg/ml) and 2 μl compound (end concentration 33300-1.69 nM; DMSO end concentration 1%) were incubated for 30 minutes at room temperature and then 2 μl ATP (ADP Glo kit, end concentration 50 μM) were added. After another 240 minutes incubation at room temperature, 5 μl Promega ADP-Glo reagent I was added to quench the reaction and deplete unconsumed ATP. After an incubation period of 30 minutes, 10 μl Promega ADP-Glo detection reagent II was added resulting in conversion of ADP to ATP, which generates a light-reaction between luciferase and luciferin. Luminescence was quantified after 30 minutes with a Pherastar FS (BMG LABTECH, Ortenberg).
The adjustment was obtained by nonlinear regression using the Levenberg Marquardt algorithm.

[2] = Homo sapiens, U-937, TNFα/zVAD.fmk induced cell death (necroptosis)

| Structure (SMILES) | IC50 (U937 cells; [2]) | IC50 [1] | IC50 (U937 cells; TNFα/zVAD.fmk induced cell death (necroptosis)) |
| --- | --- | --- | --- |
| C[C@]1(C(=O)N2OCC[C@H]2c2cc(F)cc(F)c2)C[C@@H](Nc2c(Cl)ncnc2C(N)=O)C1 [Compound 10, cis-6-chloro-5-((3-((S)-3-(3,5-difluorophenyl)isoxazolidine-2-carbonyl)-3-methylcyclobutyl)amino)pyrimidine-4-carboxamide] | 364 nM | 62 nM |  |
| C[C@]1(C(=O)N2OCC[C@H]2c2cc(F)cc(F)c2)C[C@@H](Nc2ncnc(C(N)=O)c2F)C1 [Compound 11, cis-6-((3-((S)-3-(3,5-difluorophenyl)isoxazolidine-2-carbonyl)-3-methylcyclobutyl)amino)-5-fluoropyrimidine-4-carboxamide] | 440 nM | 62 nM |  |
| NC(=O)c1ccnc(N[C@H]2CC[C@@H](C(=O)N3OCC[C@H]3c3ccc(Cl)cc3)CC2)n1 [Compound 12, cis-2-((4-((S)-3-(4-chlorophenyl)isoxazolidine-2-carbonyl)cyclohexyl)amino)pyrimidine-4-carboxamide] | 560 nM | 35 nM |  |
| NC(=O)c1cc(N[C@H]2CC[C@@H](C(=O)N3OCC[C@H]3c3ccc(Cl)cc3)CC2)ncn1 [Compound 13, cis-6-((4-((S)-3-(4-chlorophenyl)isoxazolidine-2-carbonyl)cyclohexyl)amino)pyrimidine-4-carboxamide] | 462 nM | 114 nM |  |
| N#Cc1ccnc(NC[C@H]2CC[C@H](C(=O)N3OCC[C@H]3c3ccc(Cl)cc3)CC2)n1 [Compound 14, trans-2-(((4-((S)-3-(4-chlorophenyl)isoxazolidine-2-carbonyl)cyclohexyl)methyl)amino)pyrimidine-4-carbonitrile] | 503 nM | 33 nM |  |
| N#Cc1cc(NC[C@H]2CC[C@H](C(=O)N3OCC[C@H]3c3ccc(Cl)cc3)CC2)ncn1 [Compound 15, trans-6-(((4-((S)-3-(4-chlorophenyl)isoxazolidine-2-carbonyl)cyclohexyl)methyl)amino)pyrimidine-4-carbonitrile] | 192 nM | 9 nM |  |
| N#Cc1ccnc(N[C@H]2C[C@@H](C(=O)N3OCC[C@H]3c3cccc(F)c3)C2)n1 [Compound 16, cis-2-((3-((S)-3-(3-fluorophenyl)isoxazolidine-2-carbonyl)cyclobutyl)amino)pyrimidine-4-carbonitrile] | 123 nM | 24 nM |  |
| N#Cc1cc(N[C@H]2C[C@@H](C(=O)N3OCC[C@H]3c3cccc(F)c3)C2)ncn1 [Compound 17, cis-6-((3-((S)-3-(3-fluorophenyl)isoxazolidine-2-carbonyl)cyclobutyl)amino)pyrimidine-4-carbonitrile] | 194 nM | 56 nM |  |
| N#Cc1cc(N[C@H]2C[C@@H](C(=O)N3OCC[C@H]3c3cc(F)cc(F)c3)C2)ncn1 [Compound 18, cis-6-((3-((S)-3-(3,5-difluorophenyl)isoxazolidine-2-carbonyl)cyclobutyl)amino)pyrimidine-4-carbonitrile] | 162 nM | 41 nM |  |
| N#Cc1cc(F)cc([C@@H]2CCON2C(=O)[C@H]2C[C@@H](Nc3nccc(C#N)n3)C2)c1 [Compound 19, cis-2-((3-((S)-3-(3-cyano-5-fluorophenyl)isoxazolidine-2-carbonyl)cyclobutyl)amino)pyrimidine-4-carbonitrile] | 757 nM | 66 nM |  |
| N#Cc1cc(F)cc([C@@H]2CCON2C(=O)[C@H]2C[C@@H](Nc3cc(C#N)ncn3)C2)c1 [Compound 20, cis-6-((3-((S)-3-(3-cyano-5-fluorophenyl)isoxazolidine-2-carbonyl)cyclobutyl)amino)pyrimidine-4-carbonitrile] | 809 nM | 69 nM |  |
| N#Cc1ccnc(N[C@H]2C[C@@H](C(=O)N3OCC[C@H]3c3ccc(F)c(F)c3)C2)n1 [Compound 21, cis-2-((3-((S)-3-(3,4-difluorophenyl)isoxazolidine-2-carbonyl)cyclobutyl)amino)pyrimidine-4-carbonitrile] | 212 nM | 29 nM |  |
| N#Cc1cc(N[C@H]2C[C@@H](C(=O)N3OCC[C@H]3c3ccc(F)c(F)c3)C2)ncn1 [Compound 22, cis-6-((3-((S)-3-(3,4-difluorophenyl)isoxazolidine-2-carbonyl)cyclobutyl)amino)pyrimidine-4-carbonitrile] | 313 nM | 40 nM |  |
| N#Cc1cc(N[C@H]2C[C@@H](C(=O)N3OCC[C@H]3c3ccc(Cl)cc3)C2)ncn1 [Compound 23, cis-6-((3-((S)-3-(4-chlorophenyl)isoxazolidine-2-carbonyl)cyclobutyl)amino)pyrimidine-4-carbonitrile] | 234 nM | 44 nM |  |
| N#Cc1ccnc(N[C@H]2C[C@@H](C(=O)N3OCC[C@H]3c3ccc(Cl)cc3)C2)n1 [Compound 24, cis-2-((3-((S)-3-(4-chlorophenyl)isoxazolidine-2-carbonyl)cyclobutyl)amino)pyrimidine-4-carbonitrile] |  | 13 nM | 264 nM |
| N#Cc1cc(F)cc(N[C@H]2C[C@@H](C(=O)N3OCC[C@H]3c3ccc(Cl)cc3)C2)c1 [Compound 25, cis-3-((3-((S)-3-(4-chlorophenyl)isoxazolidine-2-carbonyl)cyclobutyl)amino)-5-fluorobenzonitrile] | 420 nM | 64 nM |  |
| N#Cc1cc(F)cc(N[C@H]2C[C@@H](C(=O)N3OCC[C@H]3c3cccc(F)c3)C2)c1 [Compound 26, cis-3-fluoro-5-((3-((S)-3-(3-fluorophenyl)isoxazolidine-2-carbonyl)cyclobutyl)amino)benzonitrile] | 152 nM | 52 nM |  |
| N#Cc1cc(F)cc(N[C@H]2C[C@@H](C(=O)N3OCC[C@H]3c3ccc(F)c(F)c3)C2)c1 [Compound 27, cis-3-((3-((S)-3-(3,4-difluorophenyl)isoxazolidine-2-carbonyl)cyclobutyl)amino)-5-fluorobenzonitrile] | 170 nM | 49 nM |  |
| N#Cc1cc(F)cc([C@@H]2CCON2C(=O)[C@H]2CC[C@H](CNc3cc(C(N)=O)ncn3)CC2)c1 [Compound 29, trans-6-(((4-((S)-3-(3-cyano-5-fluorophenyl)isoxazolidine-2-carbonyl)cyclohexyl)methyl)amino)pyrimidine-4-carboxamide] | 561 nM | 86 nM |  |
| N#Cc1cc(F)cc([C@@H]2CCON2C(=O)[C@H]2CC[C@H](CNc3cc(C#N)ncn3)CC2)c1 [Compound 30, trans-6-(((4-((S)-3-(3-cyano-5-fluorophenyl)isoxazolidine-2-carbonyl)cyclohexyl)methyl)amino)pyrimidine-4-carbonitrile] | 264 nM | 59 nM |  |
| Cn1ccc2c(NC[C@H]3CC[C@H](C(=O)N4OCC[C@H]4c4cc(F)cc(C#N)c4)CC3)ncnc21 [Compound 31, trans-3-fluoro-5-((S)-2-(4-(((7-methyl-7H-pyrrolo[2,3-d]pyrimidin-4-yl)amino)methyl)cyclohexane-1-carbonyl)isoxazolidin-3-yl)benzonitrile] | 373 nM | 110 nM |  |
